Assay results reported in patent US10568975B2, “Nanoparticles for magnetic resonance imaging tracking and methods of making and using thereof” (The Johns Hopkins University, priority 2013, dated 2020).

Assay: CEST contrast of surface-conjugated polymeric nanoparticles and DYD peptide
Assay type: physicochemical
Description: Polymeric particle preparation: The peptide contrast agent, propargylglycine-W-(DYD)6-NH2, was synthesized on a microwave-assisted peptide synthesizer Libertyl (CEM, USA). The CEST nanoparticles were then prepared by standard coupling chemistry. NH2PEG-N3 was coupled to carboxylates on the surface of polystyrene (PS) particles in the presence of EDC and NHS in 200 mM sodium borate buffer pH 7.8 at RT. Propargylglycine-W-(DYD)6-NH2 peptide was coupled with PS-PEG-N3 in the presence of catalytic amount of CuAcAc, TBTA, and excess ascorbic acid in sodium phosphate buffer pH 7, under nitrogen, using click chemistry. Biodegradable CEST nanoparticles based on the polymer of poly(lactic-co-glycolic) acid-co-PEG (PLGA-PEG) were synthesized using a similar procedure and formulated using a oil-in-water emulsion method.
The nanoparticles are suitable for tumor delivery. As the interior of the nanoparticles has reduced water accessibility compared to liposomes, the CEST agent was conjugated to the surface of the particle as shown in FIGS. 5(a) through 5(c). Two versions were prepared, one with a short (0.6 kDa) and a second with a longer PEG spacer (5.6 kDa). […] The DYD peptide provides contrast centered around 2.5 ppm from water, which should allow discrimination with the BA liposomes through multi-color CEST imaging.

propargylglycine-W-(DYD)6-NH2 [DYD peptide]
CEST contrast centre, offset from water: around 2.5 ppm
